The test relates to CD2F1 mice, L1210 leukemia ip, survival T/C. Put plainly: NCI In Vivo Anticancer Drug Screen. Data for tumor model L1210 Leukemia (intraperitoneal) in CD2F1 (CDF1) mice. The conditions noted are these: endpoint: mean survival time, higher = longer survival. In short, it runs like this: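 Mice carrying a transplanted tumor received test compound or vehicle alone. The value is the measurement in the treated group divided by that in the vehicle-treated control group.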

The mark [1] stands for this setting: dose: 100.0 mg/kg/injection, schedule: Q01DX001 (ip), vehicle: saline with Tween-80.
Where [2] appears, read: dose: 100.0 mg/kg/injection, schedule: Q01DX009 (ip), vehicle: saline with Tween-80.
[3] abbreviates: dose: 200.0 mg/kg/injection, schedule: Q01DX001 (ip), vehicle: saline with Tween-80.
[4] abbreviates: dose: 200.0 mg/kg/injection, schedule: Q01DX009 (ip), vehicle: saline with Tween-80.
The mark [5] stands for this setting: dose: 400.0 mg/kg/injection, schedule: Q01DX001 (ip), vehicle: saline with Tween-80.
The mark [6] stands for this setting: dose: 75.0 mg/kg/injection, schedule: Q01DX001 (ip), vehicle: saline.
Setting [7] is: dose: 150.0 mg/kg/injection, schedule: Q01DX001 (ip), vehicle: saline.
[8] abbreviates: dose: 300.0 mg/kg/injection, schedule: Q01DX001 (ip), vehicle: saline.
The mark [9] stands for this setting: dose: 100.0 mg/kg/injection, schedule: Q04DX003 (ip), vehicle: saline with Tween-80.
Where [10] appears, read: dose: 200.0 mg/kg/injection, schedule: Q04DX003 (ip), vehicle: saline with Tween-80.
Setting [11] is: dose: 400.0 mg/kg/injection, schedule: Q04DX003 (ip), vehicle: saline with Tween-80.
Setting [12] is: dose: 50.0 mg/kg/injection, schedule: Q01DX009 (ip), vehicle: saline with Tween-80.

Values joined by “and” are separate entries in the source; they are usually repeats but may differ in a detail not shown here. Identical values can stand only once. Inconclusive results and toxic doses are left out.

As to `Cc1c(CNc2ccc(C(=O)NC(CC(=O)O)C(=O)O)cc2)ccc2nc(N)nc(N)c12` (stereo unspecified), the T/C by setting is: (dose: 0.18 mg/kg/injection, schedule: Q01DX009 (ip), vehicle: saline) 173 % of control; (dose: 0.39 mg/kg/injection, schedule: Q01DX009 (ip), vehicle: saline) 121 % of control; (dose: 0.78 mg/kg/injection, schedule: Q01DX009 (ip), vehicle: saline with Tween-80) 94 % of control; (dose: 0.78 mg/kg/injection, schedule: Q01DX009 (ip), vehicle: saline) 107 % of control; (dose: 1.56 mg/kg/injection, schedule: Q01DX009 (ip), vehicle: saline) 86 % of control and 95 % of control; (dose: 3.12 mg/kg/injection, schedule: Q01DX009 (ip), vehicle: saline) 93 % of control. In addition, the T/C was 92 % of control (dose: 6.25 mg/kg/injection, schedule: Q01DX009 (ip), vehicle: saline); 170 % of control (dose: 25.0 mg/kg/injection, schedule: Q01DX001 (ip), vehicle: saline); 117 % of control (dose: 50.0 mg/kg/injection, schedule: Q01DX001 (ip), vehicle: saline).

With `CCCCCCC(=O)/C=C\C(C)=C\c1ccccc1`, the T/C reads like this: under setting [1], 94 % of control; under setting [2], 98 % of control; under setting [3], 100 % of control; under setting [4], 98 % of control; under setting [5], 94 % of control; (dose: 400.0 mg/kg/injection, schedule: Q01DX009 (ip), vehicle: saline with Tween-80) 98 % of control.

Regarding `Nc1nc(N)c2c(n1)CN(c1ccccc1)C2`, the T/C under setting [6] is 102 % of control, the T/C under setting [7] is 104 % of control and the T/C under setting [8] is 106 % of control.

For the molecule `Cc1ccc2c(c1)C(c1ccccc1)(c1ccccc1)OC2=O`, the T/C reads like this: under setting [9], 98 % of control; under setting [10], 91 % of control; under setting [11], 95 % of control.

Regarding `O=C(NCCN1CCCCC1)C(O)(C1CCCCC1)C1CCCCC1`, the T/C reads like this: under setting [6], 97 % of control; under setting [7], 97 % of control; under setting [8], 97 % of control.

`CCCCCCCCCCCCN1CCCC(O)C1` (stereo unspecified): the T/C by setting is: (dose: 25.0 mg/kg/injection, schedule: Q01DX009 (ip), vehicle: saline with Tween-80) 116 % of control; under setting [12], 92 % of control and 105 % of control; under setting [2], 105 % of control and 111 % of control.

`CCCCCCCCCCCCCCCCn1cnc2c(Cl)ncnc21`: the T/C by setting is: (dose: 12.5 mg/kg/injection, schedule: Q01DX005 (ip), vehicle: other) 94 % of control; (dose: 25.0 mg/kg/injection, schedule: Q01DX005 (ip), vehicle: other) 91 % of control; (dose: 50.0 mg/kg/injection, schedule: Q01DX005 (ip), vehicle: other) 91 % of control; (dose: 100.0 mg/kg/injection, schedule: Q01DX005 (ip), vehicle: other) 92 % of control; (dose: 200.0 mg/kg/injection, schedule: Q01DX005 (ip), vehicle: other) 89 % of control.

As for `O=[N+]([O-])c1ccc(OCCBr)cc1`, the T/C was 91 % of control (dose: 100.0 mg/kg/injection, schedule: Q01DX009 (ip), vehicle: other); 98 % of control (dose: 200.0 mg/kg/injection, schedule: Q01DX009 (ip), vehicle: other); 94 % of control (dose: 400.0 mg/kg/injection, schedule: Q01DX009 (ip), vehicle: other).

Consider `CCOC(=O)c1ccc(NC(=O)NC(Cc2ccccc2)c2ccccc2)cc1` (stereo unspecified), for which the T/C by setting is: (dose: 25.0 mg/kg/injection, schedule: Q04DX003 (ip), vehicle: saline with Tween-80) 111 % of control; (dose: 50.0 mg/kg/injection, schedule: Q01DX001 (ip), vehicle: saline with Tween-80) 96 % of control; under setting [12], 87 % of control and 91 % of control; (dose: 50.0 mg/kg/injection, schedule: Q04DX003 (ip), vehicle: saline with Tween-80) 104 % of control; under setting [1], 96 % of control; under setting [2], 87 % of control. For the same molecule, the T/C (dose: 100.0 mg/kg/injection, schedule: Q04DX002 (ip), vehicle: saline with Tween-80) was 91 % of control; the T/C under setting [9] was 89 % of control and 106 % of control; the T/C under setting [3] was 94 % of control; the T/C under setting [4] was 87 % of control and 90 % of control; the T/C (dose: 200.0 mg/kg/injection, schedule: Q04DX002 (ip), vehicle: saline with Tween-80) was 87 % of control and 88 % of control; the T/C under setting [10] was 101 % of control. Further, the T/C by setting is: under setting [5], 94 % of control; (dose: 400.0 mg/kg/injection, schedule: Q04DX002 (ip), vehicle: saline with Tween-80) 86 % of control.

For the molecule `Cc1cccc(N)n1` (tested in a mixture with another compound), the T/C is 104 % of control (dose: 12.5 mg/kg/injection, schedule: Q01DX009 (ip), vehicle: saline); 101 % of control (dose: 25.0 mg/kg/injection, schedule: Q01DX009 (ip), vehicle: saline); 96 % of control (dose: 50.0 mg/kg/injection, schedule: Q01DX009 (ip), vehicle: saline).

`CC(C)[C@](O)(C(=O)OCC1=CC[N+]2([O-])CC[C@@H](O)[C@@H]12)[C@H](C)O` (stereo partly specified): the T/C was 116 % of control (dose: 50.0 mg/kg/injection, schedule: Q01DX009 (ip), vehicle: water); 96 % of control (dose: 750.0 mg/kg/injection, schedule: Q01DX001 (ip), vehicle: saline); 101 % of control (dose: 1000.0 mg/kg/injection, schedule: Q01DX001 (ip), vehicle: saline); 97 % of control (dose: 1250.0 mg/kg/injection, schedule: Q01DX001 (ip), vehicle: saline); 105 % of control (dose: 1500.0 mg/kg/injection, schedule: Q01DX001 (ip), vehicle: saline); 117 % of control (dose: 2000.0 mg/kg/injection, schedule: Q01DX001 (ip), vehicle: saline). Besides, the T/C (dose: 3000.0 mg/kg/injection, schedule: Q01DX001 (ip), vehicle: saline) is 115 % of control.

Regarding `OCCOC1CCC(O)C2CCCCC12` (stereo unspecified), the T/C (dose: 100.0 mg/kg/injection, schedule: Q01DX001 (ip), vehicle: saline sonified) is 103 % of control; the T/C (dose: 200.0 mg/kg/injection, schedule: Q01DX001 (ip), vehicle: saline sonified) was 98 % of control; the T/C (dose: 400.0 mg/kg/injection, schedule: Q01DX001 (ip), vehicle: saline sonified) was 109 % of control.

For `S=c1[nH]nc(Nc2ccccc2Cl)s1`, the T/C was 95 % of control (dose: 100.0 mg/kg/injection, schedule: Q04DX003 (ip), vehicle: Klucel (hydroxypropylcellulose) (HPC)); 95 % of control (dose: 200.0 mg/kg/injection, schedule: Q04DX003 (ip), vehicle: Klucel (hydroxypropylcellulose) (HPC)); 95 % of control (dose: 400.0 mg/kg/injection, schedule: Q04DX003 (ip), vehicle: Klucel (hydroxypropylcellulose) (HPC)).

For the molecule `CC(=O)Nc1ccc(S(=O)(=O)OCCC#N)cc1`, the T/C reads like this: under setting [2], 98 % of control; under setting [4], 91 % of control.

For `CCCCCC(CN(C)C)C(=O)/C=C/c1c(Cl)cccc1Cl` (stereo unspecified), the T/C by setting is: (dose: 6.25 mg/kg/injection, schedule: Q01DX009 (ip), vehicle: other) 101 % of control; (dose: 12.5 mg/kg/injection, schedule: Q01DX009 (ip), vehicle: other) 101 % of control; (dose: 25.0 mg/kg/injection, schedule: Q01DX009 (ip), vehicle: other) 104 % of control; (dose: 100.0 mg/kg/injection, schedule: Q01DX001 (ip), vehicle: Klucel (hydroxypropylcellulose) (HPC)) 94 % of control.

As for `COc1ccccc1C(=O)C(=O)c1ccccc1OC`, the T/C runs as follows: under setting [9], 100 % of control; under setting [10], 96 % of control; under setting [11], 100 % of control.

On to `O=C1N(Cc2ccccc2)CCS1(=O)=O`, for which the T/C (dose: 75.0 mg/kg/injection, schedule: Q01DX001 (ip), vehicle: other) was 96 % of control and the T/C (dose: 150.0 mg/kg/injection, schedule: Q01DX001 (ip), vehicle: other) was 106 % of control.

Values taken from PubChem BioAssay AID256 (DTP/NCI, 2004).
